Experimental data published in PubChem BioAssay AID1963980 (Molecular Pharmacology Branch, DTP, NCI, 2024).

Test system: 475296-252-R-J1-PDC spheroid viability
Assay: Anticancer human tumor 475296-252-R-J1-PDC patient-derived rectal carcinoma cell line growth inhibition [PI3K]
Settings: second compound 0.316 µM; first compound 0.1 µM; active compounds read low; spheroids with HUVEC and MSC
Summary of the method: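 Agents were dosed from a top concentration near clinical Cmax (otherwise 10 microM) in half-log decrements, alone or combined with PI3K inhibitors. The spheroids contain tumor cells plus endothelial (HUVEC) and MSC stroma; viability is measured.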
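Also: spheroids exposed to agents for seven days before readout.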

Going from `C=CC(=O)N1CCN(c2nc(=O)n(-c3c(C)ccnc3C(C)C)c3nc(-c4c(O)cccc4F)c(F)cc23)C(C)C1` (configuration not stated) + CC(Nc1ccc2c(c1)OCCn1cc(N3C(=O)OCC3C(F)F)nc1-2)C(N)=O to `CCN1CCN(Cc2ccc(Nc3ncc(F)c(-c4cc(F)c5nc(C)n(C(C)C)c5c4)n3)nc2)CC1` + CC(Nc1ccc2c(c1)OCCn1cc(N3C(=O)OCC3C(F)F)nc1-2)C(N)=O, the viability, T/C falls from 90.8% to 86.9%.

First: Cn1ncc(Cl)c1-c1cc(C(=O)NC(CN)Cc2cccc(F)c2)sc1Cl (configuration not stated) + CC(Nc1ccc2c(c1)OCCn1cc(N3C(=O)OCC3C(F)F)nc1-2)C(N)=O
Second: Cn1nccc1Nc1nccc(-c2ccn(C(CO)c3ccc(Cl)c(F)c3)c(=O)c2)n1 (configuration not stated) + CC(Nc1ccc2c(c1)OCCn1cc(N3C(=O)OCC3C(F)F)nc1-2)C(N)=O
The viability, T/C of the first is higher: 94.3% for the first, 87.4% for the second.

Same assay, conditions: second compound 0.316 µM; first compound 0.316 µM; active compounds read low; spheroids with HUVEC and MSC

Compared with `C=CC(=O)N1CCN(c2nc(=O)n(-c3c(C)ccnc3C(C)C)c3nc(-c4c(O)cccc4F)c(F)cc23)C(C)C1` (configuration not stated) + CC(Nc1ccc2c(c1)OCCn1cc(N3C(=O)OCC3C(F)F)nc1-2)C(N)=O, `CCN1CCN(Cc2ccc(Nc3ncc(F)c(-c4cc(F)c5nc(C)n(C(C)C)c5c4)n3)nc2)CC1` + CC(Nc1ccc2c(c1)OCCn1cc(N3C(=O)OCC3C(F)F)nc1-2)C(N)=O is lower in viability, T/C: 88% for the first, 85% for the second.

First: Cn1ncc(Cl)c1-c1cc(C(=O)NC(CN)Cc2cccc(F)c2)sc1Cl (configuration not stated) + CC(Nc1ccc2c(c1)OCCn1cc(N3C(=O)OCC3C(F)F)nc1-2)C(N)=O
Second: Cn1nccc1Nc1nccc(-c2ccn(C(CO)c3ccc(Cl)c(F)c3)c(=O)c2)n1 (configuration not stated) + CC(Nc1ccc2c(c1)OCCn1cc(N3C(=O)OCC3C(F)F)nc1-2)C(N)=O
The viability, T/C of the first is higher: 85.7% for the first, 83.1% for the second.

Same assay, conditions: second compound 0.316 µM; first compound 1 µM; active compounds read low; spheroids with HUVEC and MSC

Compared with `C=CC(=O)N1CCN(c2nc(=O)n(-c3c(C)ccnc3C(C)C)c3nc(-c4c(O)cccc4F)c(F)cc23)C(C)C1` (configuration not stated) + CC(Nc1ccc2c(c1)OCCn1cc(N3C(=O)OCC3C(F)F)nc1-2)C(N)=O, `CCN1CCN(Cc2ccc(Nc3ncc(F)c(-c4cc(F)c5nc(C)n(C(C)C)c5c4)n3)nc2)CC1` + CC(Nc1ccc2c(c1)OCCn1cc(N3C(=O)OCC3C(F)F)nc1-2)C(N)=O is lower in viability, T/C: 86.9% for the first, 71.2% for the second.

Compared with `Cn1ncc(Cl)c1-c1cc(C(=O)NC(CN)Cc2cccc(F)c2)sc1Cl` (configuration not stated) + CC(Nc1ccc2c(c1)OCCn1cc(N3C(=O)OCC3C(F)F)nc1-2)C(N)=O, `Cn1nccc1Nc1nccc(-c2ccn(C(CO)c3ccc(Cl)c(F)c3)c(=O)c2)n1` (configuration not stated) + CC(Nc1ccc2c(c1)OCCn1cc(N3C(=O)OCC3C(F)F)nc1-2)C(N)=O is higher in viability, T/C: 69.5% for the first, 77.2% for the second.

Same assay, conditions: second compound 0.316 µM; first compound 3.16 µM; active compounds read low; spheroids with HUVEC and MSC

Going from `C=CC(=O)N1CCN(c2nc(=O)n(-c3c(C)ccnc3C(C)C)c3nc(-c4c(O)cccc4F)c(F)cc23)C(C)C1` (configuration not stated) + CC(Nc1ccc2c(c1)OCCn1cc(N3C(=O)OCC3C(F)F)nc1-2)C(N)=O to `Cn1nccc1Nc1nccc(-c2ccn(C(CO)c3ccc(Cl)c(F)c3)c(=O)c2)n1` (configuration not stated) + CC(Nc1ccc2c(c1)OCCn1cc(N3C(=O)OCC3C(F)F)nc1-2)C(N)=O, the viability, T/C falls from 83.4% to 61.1%.

`Cn1ncc(Cl)c1-c1cc(C(=O)NC(CN)Cc2cccc(F)c2)sc1Cl` (configuration not stated) + CC(Nc1ccc2c(c1)OCCn1cc(N3C(=O)OCC3C(F)F)nc1-2)C(N)=O gave a viability, T/C of 72.8%.

Same assay, conditions: second compound 0.316 µM; first compound 10 µM; active compounds read low; spheroids with HUVEC and MSC

Going from `C=CC(=O)N1CCN(c2nc(=O)n(-c3c(C)ccnc3C(C)C)c3nc(-c4c(O)cccc4F)c(F)cc23)C(C)C1` (configuration not stated) + CC(Nc1ccc2c(c1)OCCn1cc(N3C(=O)OCC3C(F)F)nc1-2)C(N)=O to `Cn1nccc1Nc1nccc(-c2ccn(C(CO)c3ccc(Cl)c(F)c3)c(=O)c2)n1` (configuration not stated) + CC(Nc1ccc2c(c1)OCCn1cc(N3C(=O)OCC3C(F)F)nc1-2)C(N)=O, the viability, T/C falls from 86.2% to 43.1%.

Work on `Cn1ncc(Cl)c1-c1cc(C(=O)NC(CN)Cc2cccc(F)c2)sc1Cl` (configuration not stated) + CC(Nc1ccc2c(c1)OCCn1cc(N3C(=O)OCC3C(F)F)nc1-2)C(N)=O yielded a viability, T/C of 51.5%.

Same assay, conditions: second compound 1 µM; first compound 0.00316 µM; active compounds read low; spheroids with HUVEC and MSC

In the case of `CCN1CCN(Cc2ccc(Nc3ncc(F)c(-c4cc(F)c5nc(C)n(C(C)C)c5c4)n3)nc2)CC1` + CC(Nc1ccc2c(c1)OCCn1cc(N3C(=O)OCC3C(F)F)nc1-2)C(N)=O, the viability, T/C is reported as 83.3%.

Same assay, conditions: second compound 1 µM; first compound 0.01 µM; active compounds read low; spheroids with HUVEC and MSC

`CCN1CCN(Cc2ccc(Nc3ncc(F)c(-c4cc(F)c5nc(C)n(C(C)C)c5c4)n3)nc2)CC1` + CC(Nc1ccc2c(c1)OCCn1cc(N3C(=O)OCC3C(F)F)nc1-2)C(N)=O gave a viability, T/C of 75.5%.

Same assay, conditions: second compound 1 µM; first compound 0.0316 µM; active compounds read low; spheroids with HUVEC and MSC

First: C=CC(=O)N1CCN(c2nc(=O)n(-c3c(C)ccnc3C(C)C)c3nc(-c4c(O)cccc4F)c(F)cc23)C(C)C1 (configuration not stated) + CC(Nc1ccc2c(c1)OCCn1cc(N3C(=O)OCC3C(F)F)nc1-2)C(N)=O
Second: CCN1CCN(Cc2ccc(Nc3ncc(F)c(-c4cc(F)c5nc(C)n(C(C)C)c5c4)n3)nc2)CC1 + CC(Nc1ccc2c(c1)OCCn1cc(N3C(=O)OCC3C(F)F)nc1-2)C(N)=O
The viability, T/C of the first is higher: 82.7% for the first, 80.5% for the second.

Going from `Cn1ncc(Cl)c1-c1cc(C(=O)NC(CN)Cc2cccc(F)c2)sc1Cl` (configuration not stated) + CC(Nc1ccc2c(c1)OCCn1cc(N3C(=O)OCC3C(F)F)nc1-2)C(N)=O to `Cn1nccc1Nc1nccc(-c2ccn(C(CO)c3ccc(Cl)c(F)c3)c(=O)c2)n1` (configuration not stated) + CC(Nc1ccc2c(c1)OCCn1cc(N3C(=O)OCC3C(F)F)nc1-2)C(N)=O, the viability, T/C falls from 92.3% to 84.1%.

Same assay, conditions: second compound 1 µM; first compound 0.1 µM; active compounds read low; spheroids with HUVEC and MSC

Compared with `C=CC(=O)N1CCN(c2nc(=O)n(-c3c(C)ccnc3C(C)C)c3nc(-c4c(O)cccc4F)c(F)cc23)C(C)C1` (configuration not stated) + CC(Nc1ccc2c(c1)OCCn1cc(N3C(=O)OCC3C(F)F)nc1-2)C(N)=O, `CCN1CCN(Cc2ccc(Nc3ncc(F)c(-c4cc(F)c5nc(C)n(C(C)C)c5c4)n3)nc2)CC1` + CC(Nc1ccc2c(c1)OCCn1cc(N3C(=O)OCC3C(F)F)nc1-2)C(N)=O is lower in viability, T/C: 79% for the first, 76.9% for the second.

Compared with `Cn1ncc(Cl)c1-c1cc(C(=O)NC(CN)Cc2cccc(F)c2)sc1Cl` (configuration not stated) + CC(Nc1ccc2c(c1)OCCn1cc(N3C(=O)OCC3C(F)F)nc1-2)C(N)=O, `Cn1nccc1Nc1nccc(-c2ccn(C(CO)c3ccc(Cl)c(F)c3)c(=O)c2)n1` (configuration not stated) + CC(Nc1ccc2c(c1)OCCn1cc(N3C(=O)OCC3C(F)F)nc1-2)C(N)=O is higher in viability, T/C: 79% for the first, 81% for the second.

Same assay, conditions: second compound 1 µM; first compound 0.316 µM; active compounds read low; spheroids with HUVEC and MSC

First: C=CC(=O)N1CCN(c2nc(=O)n(-c3c(C)ccnc3C(C)C)c3nc(-c4c(O)cccc4F)c(F)cc23)C(C)C1 (configuration not stated) + CC(Nc1ccc2c(c1)OCCn1cc(N3C(=O)OCC3C(F)F)nc1-2)C(N)=O
Second: CCN1CCN(Cc2ccc(Nc3ncc(F)c(-c4cc(F)c5nc(C)n(C(C)C)c5c4)n3)nc2)CC1 + CC(Nc1ccc2c(c1)OCCn1cc(N3C(=O)OCC3C(F)F)nc1-2)C(N)=O
The viability, T/C of the first is higher: 87.5% for the first, 79.1% for the second.

Going from `Cn1ncc(Cl)c1-c1cc(C(=O)NC(CN)Cc2cccc(F)c2)sc1Cl` (configuration not stated) + CC(Nc1ccc2c(c1)OCCn1cc(N3C(=O)OCC3C(F)F)nc1-2)C(N)=O to `Cn1nccc1Nc1nccc(-c2ccn(C(CO)c3ccc(Cl)c(F)c3)c(=O)c2)n1` (configuration not stated) + CC(Nc1ccc2c(c1)OCCn1cc(N3C(=O)OCC3C(F)F)nc1-2)C(N)=O, the viability, T/C rises from 84.1% to 87.1%.

Same assay, conditions: second compound 1 µM; first compound 1 µM; active compounds read low; spheroids with HUVEC and MSC

Going from `C=CC(=O)N1CCN(c2nc(=O)n(-c3c(C)ccnc3C(C)C)c3nc(-c4c(O)cccc4F)c(F)cc23)C(C)C1` (configuration not stated) + CC(Nc1ccc2c(c1)OCCn1cc(N3C(=O)OCC3C(F)F)nc1-2)C(N)=O to `CCN1CCN(Cc2ccc(Nc3ncc(F)c(-c4cc(F)c5nc(C)n(C(C)C)c5c4)n3)nc2)CC1` + CC(Nc1ccc2c(c1)OCCn1cc(N3C(=O)OCC3C(F)F)nc1-2)C(N)=O, the viability, T/C falls from 83.5% to 64.2%.

First: Cn1ncc(Cl)c1-c1cc(C(=O)NC(CN)Cc2cccc(F)c2)sc1Cl (configuration not stated) + CC(Nc1ccc2c(c1)OCCn1cc(N3C(=O)OCC3C(F)F)nc1-2)C(N)=O
Second: Cn1nccc1Nc1nccc(-c2ccn(C(CO)c3ccc(Cl)c(F)c3)c(=O)c2)n1 (configuration not stated) + CC(Nc1ccc2c(c1)OCCn1cc(N3C(=O)OCC3C(F)F)nc1-2)C(N)=O
The viability, T/C of the first is higher: 76.1% for the first, 67.9% for the second.

Same assay, conditions: second compound 1 µM; first compound 3.16 µM; active compounds read low; spheroids with HUVEC and MSC

Compared with `C=CC(=O)N1CCN(c2nc(=O)n(-c3c(C)ccnc3C(C)C)c3nc(-c4c(O)cccc4F)c(F)cc23)C(C)C1` (configuration not stated) + CC(Nc1ccc2c(c1)OCCn1cc(N3C(=O)OCC3C(F)F)nc1-2)C(N)=O, `Cn1nccc1Nc1nccc(-c2ccn(C(CO)c3ccc(Cl)c(F)c3)c(=O)c2)n1` (configuration not stated) + CC(Nc1ccc2c(c1)OCCn1cc(N3C(=O)OCC3C(F)F)nc1-2)C(N)=O is lower in viability, T/C: 86.6% for the first, 53.3% for the second.

For `Cn1ncc(Cl)c1-c1cc(C(=O)NC(CN)Cc2cccc(F)c2)sc1Cl` (configuration not stated) + CC(Nc1ccc2c(c1)OCCn1cc(N3C(=O)OCC3C(F)F)nc1-2)C(N)=O, the viability, T/C was 62%.

Same assay, conditions: second compound 1 µM; first compound 10 µM; active compounds read low; spheroids with HUVEC and MSC

Going from `C=CC(=O)N1CCN(c2nc(=O)n(-c3c(C)ccnc3C(C)C)c3nc(-c4c(O)cccc4F)c(F)cc23)C(C)C1` (configuration not stated) + CC(Nc1ccc2c(c1)OCCn1cc(N3C(=O)OCC3C(F)F)nc1-2)C(N)=O to `Cn1nccc1Nc1nccc(-c2ccn(C(CO)c3ccc(Cl)c(F)c3)c(=O)c2)n1` (configuration not stated) + CC(Nc1ccc2c(c1)OCCn1cc(N3C(=O)OCC3C(F)F)nc1-2)C(N)=O, the viability, T/C falls from 81.3% to 31.4%.

Work on `Cn1ncc(Cl)c1-c1cc(C(=O)NC(CN)Cc2cccc(F)c2)sc1Cl` (configuration not stated) + CC(Nc1ccc2c(c1)OCCn1cc(N3C(=O)OCC3C(F)F)nc1-2)C(N)=O yielded a viability, T/C of 36.6%.
